According to PubChem BioAssay AID179 (DTP/NCI, 2004):
Active and inactive are the calls of the source.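 How the source made its calls: active means compounds giving half or more protection of infected cells from virus-caused growth loss, again on retest; inactive means the rest.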

Test system: CEM cells HIV-1 protection, formazan growth assay
Experiment: NCI AIDS Antiviral Assay
Settings: for IC50: measured here: growth of uninfected CEM cells
Procedure, shortened: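 Human CEM cells, uninfected and HIV-1-infected, received five drug concentrations, and growth was read by soluble formazan assay. Compounds giving at least 50% protection were retested; reproducible 100% protection defined confirmed active.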

## O=C(CCN1CCC(CCO)CC1)Nc1ccc2c(c1)C(=O)c1ccc(NC(=O)CCN3CCC(CCO)CC3)cc1C2=O
  EC50: > 200 µM
  IC50: 43.7 µM

## Clc1ccc(NC2=NCCCS2)c2ccccc12
  EC50: > 200 µM
  IC50: 42.7 µM

## C=CCCCC1CCCNC1=O (centres undefined)
  EC50: > 1480 µM
  IC50: 1150 µM

## Cc1oc2nc(N(C)C)nc(NN)c2c1C
  outcome: inactive

## Cc1ncc([N+](=O)[O-])n1CCNC(=O)Cn1ccnc1[N+](=O)[O-]
  EC50: > 200 µM
  IC50: > 200 µM

## C=CCON(C(=O)OC(C)(C)C)C(C)(C)C
  EC50: > 200 µM
  IC50: > 200 µM

## COC1(OC)CC2C(=O)CCCC21OC (centres undefined)
  EC50: > 603 µM
  IC50: > 603 µM

## CC(C)c1cccc(C(C)C)c1NC(=O)C(=O)C(C(=O)c1ccc2ccccc2c1)C1OC(=O)c2ccccc21 (centres undefined)
  EC50: > 67.6 µM
  IC50: 34.7 µM

## Cc1cc(O)c2c(=O)c3ccccc3[nH]c2c1
  EC50: > 200 µM
  IC50: 40.7 µM

## CCn1ccnc1.CCn1ccnc1.O=C([O-])CC(O)C(=O)[O-].[Pt+2] (centres undefined)
  EC50: > 200 µM
  IC50: > 200 µM

## O=C(O)CCCC[n+]1ccccc1
  EC50: > 200 µM
  IC50: > 200 µM

## CC(C)c1cccc(C(C)C)c1NC(=O)C(=O)C1CCC2=C(Sc3ccccc3N2)C1=O (centres undefined)
  EC50: > 204 µM
  IC50: 2.24 µM

## Brc1cccc[n+]1Cc1cccc(C[n+]2ccccc2Br)c1
  EC50: 0.0631 µM
  IC50: 141 µM

## CC1(C(=O)O)CC(C(=O)O)=Nn2c3ccccc3c3cccc1c32 (centres undefined)
  EC50: > 324 µM
  IC50: > 324 µM

## CCOC(=O)c1nc(SC)sc1NC(=O)c1ccccc1[N+](=O)[O-]
  EC50: 195 µM
  IC50: > 200 µM

## COC(=O)c1cc(C(CCl)c2cc(C(=O)OC)c(O)c(Br)c2C)c(C)c(Br)c1O
  outcome: inactive

## CN1CCCS/C1=C1/SC(=S)N(c2ccccc2)C1=O
  EC50: > 30.9 µM
  IC50: > 30.9 µM

## COC(=O)[C@H](Cc1ccccc1)NP(=O)(OC)OCC1OC(n2cc(C)c(=O)[nH]c2=O)CC1N=[N+]=[N-] (some centres undefined)
  EC50: 83.2 µM
  IC50: > 200 µM

## CC1=NNC(=O)C1C1CC(c2c[nH]c3ccccc23)=NN=C1Cl (centres undefined)
  EC50: > 200 µM
  IC50: 93.3 µM

## O=c1c2cccnc2[nH]c2ccc3scnc3c12
  EC50: > 200 µM
  IC50: > 200 µM

## O=C/C(=C(/Br)I)c1ccccc1
  EC50: > 200 µM
  IC50: 1.26 µM

## O=c1[nH]nc2ccccc2c1Cc1ccccc1
  EC50: > 151 µM
  IC50: > 151 µM

## CC#CC(O)(C(=O)OC1CC2CCC(C1)N2C)C1CCCC1 (centres undefined)
  EC50: > 200 µM
  IC50: > 200 µM

## NC1=NS(=O)(=O)Nc2nc(-c3ccc(Cl)cc3)[nH]c21
  EC50: > 200 µM
  IC50: > 200 µM

## COC(=O)C(CCc1cc(OC)ccc1I)C1=CCC2(CC1)OCCO2 (centres undefined)
  EC50: > 38 µM
  IC50: > 38 µM

## Nc1cc2c3c(c1)Oc1cc(N)cc4c1C3c1c(cc(N)cc1O4)O2
  EC50: > 30.9 µM
  IC50: 23.4 µM

## O=[N+]([O-])c1ccc(N/N=C2/CC3=C2CCCCCCCCCC3)c([N+](=O)[O-])c1
  EC50: > 100 µM
  IC50: > 100 µM

## CC(=O)Nc1[nH]n(C)c(=O)c1-c1nnc(C)s1
  EC50: > 977 µM
  IC50: 437 µM

## O=C(Cn1c(-c2ccccc2)cc2ccccc21)N1CCCC1
  EC50: > 200 µM
  IC50: 126 µM

## Clc1ccccc1C(c1ccccc1)(c1ccccc1)n1ccnc1
  EC50: > 200 µM
  IC50: 21.4 µM

## CC(=O)Oc1ccc2cc(Oc3ccc(Cl)cc3)c(=O)oc2c1
  EC50: > 200 µM
  IC50: 83.2 µM

## N=C(N)SC(c1ccccc1)C(O)c1ccccc1 (centres undefined)
  EC50: > 200 µM
  IC50: 91.2 µM

## O=P1(Oc2ccccc2)OC[C@H]2S[C@H](c3ccccc3)C[C@H]2O1 (some centres undefined)
  EC50: > 200 µM
  IC50: > 200 µM

## O=C(CNc1ccccc1Cl)Nn1c(-c2ccccc2)nc2ccccc2c1=O
  EC50: > 200 µM
  IC50: 30.2 µM

## C/C=C(\C)C(=O)c1c(O)cc(O)c2ccc(=O)oc12
  EC50: > 200 µM
  IC50: 112 µM

## c1ccc(N=C(Nc2ccccc2)N2CCCCC2)cc1
  EC50: > 200 µM
  IC50: 77.6 µM

## COc1ccc(C23CCC(=O)N2CCS3)cc1 (centres undefined)
  outcome: inactive

## O=C1CSC(c2ccccc2)N1c1ccc(-n2c(-c3ccccc3)nc3ccccc3c2=O)cc1 (centres undefined)
  EC50: > 200 µM
  IC50: 35.5 µM

## CCC/C(Cl)=N/OC(=O)Nc1ccccc1C(F)(F)F
  EC50: > 20 µM
  IC50: 3.39 µM

## COC(=O)C(c1[nH]nc2ccccc12)C(C(=O)OC)c1[nH]nc2ccccc12 (centres undefined)
  outcome: inactive

## NC(=O)C(N)C(F)c1ccccc1 (centres undefined)
  EC50: > 200 µM
  IC50: > 200 µM

## Cc1cc(S(=O)(=O)Nc2n[nH]c(-c3ccc(Cl)cn3)n2)c(S)cc1Cl
  EC50: > 148 µM
  IC50: 123 µM

## Cc1c(Cc2ccccc2)n(C(C)OCCN(OC(=O)Oc2ccccc2)C(=O)Oc2ccccc2)c(=O)[nH]c1=O (centres undefined)
  EC50: > 200 µM
  IC50: 53.7 µM

## CC(=O)Nc1ccc(NNc2cc(=O)n(C)c(=O)[nH]2)cc1
  EC50: > 200 µM
  IC50: 2.4 µM

## CCOC(=O)/C(C#N)=C/c1ccnc2ccccc12
  EC50: > 200 µM
  IC50: 3.8 µM

## CC1(C)C(=O)C2(C#N)CCC1C2 (centres undefined)
  EC50: > 200 µM
  IC50: > 200 µM

## CC(=O)N(CCc1ccccc1)C(C#N)c1ccccc1 (centres undefined)
  EC50: > 200 µM
  IC50: > 200 µM

## O=S(=O)(NCCSSCCNS(=O)(=O)c1ccc(F)cc1)c1ccc(F)cc1
  EC50: > 200 µM
  IC50: 8.91 µM

## O=c1cccc2n1CC1CNCC2C1 (centres undefined)
  EC50: > 200 µM
  IC50: > 200 µM

## CSc1nc(C)cc(Nc2ccc(O)c(CN3CCOCC3)c2)n1
  EC50: > 24 µM
  IC50: > 24 µM

## O=C(O)c1cc(C(c2ccc(O)c(C(=O)O)c2)c2ccc(O)c(C(=O)O)c2)ccc1O
  EC50: > 151 µM
  IC50: 28.8 µM

## N#Cc1nc(Cc2ccccc2)oc1N
  outcome: inactive

## CC1=C(C(=O)Nc2ccc(Cl)c(Cl)c2)C(c2ccc([N+](=O)[O-])cc2)C(C(=O)Nc2ccc(Cl)c(Cl)c2)=C(C)N1
  EC50: > 8.71 µM
  IC50: 5.62 µM

## COc1cc(/C=C/C(=N\NC(N)=S)c2sc(NNC(C)=O)nc2C)ccc1O
  EC50: > 77.6 µM
  IC50: 69.2 µM

## O=C(NCCCCCCNC(=O)n1cc(F)c(=O)[nH]c1=O)NCCCOCCOCCOCCOCCOCCOCCOCCOCCOCCOCCOCCOCCOCCOCCOCCOCCOCCOCCOCCOCCOCCCNC(=O)C(O)C(O)C(O)C(O)CO (centres undefined)
  outcome: inactive

## O=c1c2ccccc2nc(-c2ccccc2Cl)n1NCC1(O)OCC(O)C(O)C1O (centres undefined)
  outcome: inactive

## CCOC(=O)/C(C#N)=C/N(CC)/N=C/c1ccccc1
  EC50: > 200 µM
  IC50: > 200 µM

## CCc1cccc(C)c1NC(=O)CC1C(=O)Nc2ccccc2S1(=O)=O (centres undefined)
  EC50: > 10 µM
  IC50: > 10 µM

## O=C(/C=C/c1ccccc1)Nc1ccccc1SCCCCl
  EC50: > 200 µM
  IC50: 9.55 µM

## CC(C)=NNC(=O)CC(=O)N(C(=O)c1ccccc1Cl)c1ccc(C)cc1
  EC50: > 468 µM
  IC50: > 468 µM

## Cc1nn(C(=O)c2ccncc2)c2c1C(c1ccccc1)SC(N)=N2 (centres undefined)
  EC50: 28.2 µM
  IC50: > 100 µM

## CN1CCCN(C)CCCN(C)CCCN(C)CCC1
  EC50: > 100 µM
  IC50: > 100 µM

## CC[N+]1(C)CCC(O)(c2ccc(C)cc2)C(C(=O)c2ccc(C)cc2)C1 (centres undefined)
  EC50: > 200 µM

## Nc1ccc(Cc2c(N)[nH]c(=O)[nH]c2=O)cc1
  EC50: > 200 µM
  IC50: > 200 µM

## c1ccc2c(c1)oc1cc3c(cc12)n1nnnc1c1cccn31
  EC50: > 200 µM
  IC50: > 200 µM

## Cn1cc(B(O)O)c(=O)[nH]c1=O
  EC50: > 200 µM
  IC50: > 200 µM

## COc1ccc(C(=O)C2CC3(CCC2(O)c2ccc(OC)cc2)CC(=O)Nc2ccccc2C3=O)cc1 (centres undefined)
  EC50: > 200 µM
  IC50: 72.4 µM

## CCNC(=O)c1ccccc1S(C)=O (centres undefined)
  EC50: > 200 µM
  IC50: > 200 µM

## O=C(N=C1N(c2ccccc2)C(=O)C(=O)N1c1ccccc1)c1ccccc1
  EC50: > 200 µM
  IC50: 5.62 µM

## COc1ccc2c(c1)C13CCCC(C)(C(=O)NC1)C3CC2 (centres undefined)
  EC50: > 200 µM
  IC50: > 200 µM

## CCCCNC(=O)OCC(C)(CCC)COC(N)=O (centres undefined)
  EC50: > 200 µM
  IC50: 148 µM

## O=C(CC(=O)c1cccnc1)NC(=O)c1ccccc1
  EC50: > 355 µM
  IC50: > 355 µM

## N#CC(C#N)=Cc1c(O)ccc2ccccc12
  EC50: > 200 µM
  IC50: 9.77 µM

## COc1ccc(CN2COc3c(cc(C)c4cccnc34)C2)cc1
  EC50: > 200 µM
  IC50: 1.02 µM

## Cc1ccc(CS(=O)(=O)C/N=c2\sc3ccccc3nc2/C=C(\O)c2ccc(Cl)cc2)cc1
  EC50: > 200 µM
  IC50: > 200 µM

## Cc1c(C)c2cc3c(=O)ccoc3c(C)c2oc1=O
  EC50: > 20.4 µM
  IC50: > 20.4 µM

## O=C(NCO)NCOCn1c(=O)n(CO)c(=O)n(CO)c1=O
  EC50: > 407 µM
  IC50: 70.8 µM

## COC(=O)Cc1cccc2c1CCC2=O
  EC50: > 200 µM
  IC50: > 200 µM

## CC1OC(OC2C(O)COC(OC3C(C)OC(OC4C(OC(=O)[C@]56CCC(C)(C)C[C@@H]5C5=CCC7[C@@]8(C)C[C@H](O)[C@H](OC9OC(CO)C(O)C(O)C9O)[C@@](C)(CO)[C@@H]8CC[C@@]7(C)[C@]5(C)CC6)OCC(O)C4O)C(O)C3OC3OCC(O)C(O)C3O)C2O)C(O)C(O)C1O (some centres undefined)
  EC50: > 58.9 µM
  IC50: 19.5 µM

## Cc1ccc(S(=O)(=O)OC2C3OC(C)(C)OC3OC2C(c2cc(O)c3c(c2O)C(=O)c2ccccc2C3=O)c2cc(O)c3c(c2O)C(=O)c2ccccc2C3=O)cc1 (centres undefined)
  EC50: > 200 µM
  IC50: > 200 µM

## CC1(C)CC(=O)C(C=NC(=S)C(N)=S)=C(O)C1
  EC50: > 200 µM
  IC50: 37.2 µM

## CN(C)c1ccc(/C=C(\NC(=O)c2ccccc2)C(=O)Nc2cccc(C(=O)NCCCO)c2)cc1
  EC50: > 200 µM
  IC50: > 200 µM

## C[C@]12CCC3c4ccc(OS(=O)(=O)O)cc4CC[C@H]3C1CC[C@@H]2O (some centres undefined)
  outcome: inactive

## C/C(=C/OS(=O)(=O)C(F)(F)F)c1ccccc1
  EC50: > 200 µM
  IC50: 57.5 µM

## CC1(C)C2CCC1(CS(=O)O)C(=O)C2.[Ag] (centres undefined)
  EC50: > 398 µM
  IC50: 7.94 µM

## COC(=O)[C@]1(C)CCC[C@]2(C)[C@H]3CC4OO[C@@]3(CC[C@H]21)[C@H]1O[C@@]41C(C)C
  outcome: inactive

## COc1cc(/C=C/C(=O)C(C)(C)C)cc(OC)c1OC
  EC50: > 178 µM
  IC50: 11.5 µM

## Cn1c(=O)[nH]c2[nH]c3ccccc3c2c1=O
  EC50: > 200 µM
  IC50: > 200 µM

## COC(=S)C12CC3CC(CC(C3)C1)C2
  outcome: inactive

## O=C1NN2CCN=C2c2cnccc21
  EC50: > 1320 µM
  IC50: > 1320 µM
